{
  "source": "patent US4119719A",
  "about": "“Piperazine compounds” (Parcor, priority 1975, dated 1978)",
  "key": {"[1]": {"assay": "LD50 /24 hours, intravenous route in mice (method of Miller and Tainter)", "conditions": "mouse, in vivo, read-out: LD50 /24 hours/kg of body weight", "procedure": "1, 53 mg for derivative no. 2, 89 mg for derivative no. 3, 57 mg for derivative no. 4, 41 mg for derivative no. 5, 62 mg for derivative no. 6, 66 mg for derivative no. 7, 74 mg for derivative no. 8 and 100 mg for derivative no. 9."}, "[2]": {"test_system": "cholesterol level in the plasma", "assay": "Hypocholesterolaemic activity: test using propyl thiouracil", "assay_type": "in vivo", "conditions": "rats, 10 mg/kg orally, 11th day", "excerpt": "(a) Test using propyl thiouracil ([…] and Coll., J. Pharmacol. Exper. Therap., 1963, 142, 132-136). […] On the 11th day of the experiment, blood samples are taken and the free cholesterol and total cholesterol are estimated."}, "dyslipaemia": {"test_system": "dyslipaemia", "assay": "Hypocholesterolaemic activity: rabbits kept on a hypercholesterolaemic diet, biological tests of dyslipaemia", "assay_type": "in vivo", "set-up": "total cholesterol (T) / esterified cholesterol (E) / free cholesterol (L) / Burstein test with dextrane (B) / serum lipids (LS): unit not given here", "conditions": "10 mg/kg daily oral", "procedure": "(§1) (b) This study was carried out on rabbits kept on a hypercholesterolaemic diet. The rabbits are divided into batches of 40 animals; the control batch (A) receives no treatment, whereas the treated batches are given the medicines according to the invention. Thus, derivative no. 1 is administered to the animals in batch B, derivative no. 5 to those in batch C and derivative no. 7 to those in batch D, by oral route, daily, in dosage of 10 mg/kg. On the first day of the experiments and then every 15 days, for a period of 75 days, biological tests are carried out on all the animals, whereby the various elements which indicate dyslipaemia are determined: total cholesterol (T), esterified cholesterol (E), free cholesterol (L), esterification ratio (E/T), Kunkel phenol test (K1), Kunkel phenol test (K2), Burstein test with dextrane (B) and serum lipids (LS).\n(§2) The results, representing the average values determined with each batch, are assembled in the following Tables: […]"}, "livers and aortas": {"test_system": "livers and aortas", "assay": "Rabbits kept on a hypercholesterolaemic diet: macroscopic examination of livers and aortas", "assay_type": "in vivo", "conditions": "10 mg/kg daily oral, end of experiment", "procedure": "as §1\nAt the end of the experiment, all the animals are killed and autopsies are performed on them; macroscopic examinations of their livers and aortas are then carried out, and the fatty infiltrations of the liver are marked, in size, from 0 to 3 and the aortic atheromatous lesions are marked, in intensity, from 0 to 4.\nas §2"}, "[3]": {"test_system": "stretching movements induced by acetic acid", "assay": "Analgesic activity: acetic acid stretching movements (method of Koster, Anderson and De Beer)", "assay_type": "in vivo", "conditions": "mice, 50 mg/kg oral thirty minutes before acetic acid; reduction in stretching movements in next thirty minutes", "procedure": "The intraperitoneal injection of a dilute solution of acetic acid causes, in mice, repeated characteristic stretching movements under the effect of the pain. The oral administration of a dosage of 50 mg/kg of the test derivative, thirty minutes before the injection of acetic acid, reduces the number of movements in the next thirty minutes. In this way, the average number of stretching movements and the percentage analgesia obtained, corresponding to the percentage reduction in the number of stretching movements, compared with the controls, are determined."}},
  "data": [
    {"molecule": "Cl.Cl.Clc1ccc(N2CCN(CCCN3CCCC3)CC2)cc1", "note": "[Derivative no. 7, 1-(p-chlorophenyl)-4-(3-pyrrolidino-propyl)-piperazine dihydrochloride]", "values": [
      {"measurement": "LD50 at 24 h", "setting": "[1]", "result": 66, "unit": "mg/kg"},
      {"measurement": "Free cholesterol", "setting": "[2]", "result": 0.12, "unit": "g/L"},
      {"measurement": "Total cholesterol", "setting": "[2]", "result": 0.50, "unit": "g/L"},
      {"measurement": "Burstein test with dextrane (B)", "setting": "dyslipaemia; 1st Day", "result": 10.6},
      {"measurement": "Kunkel phenol test (K1)", "setting": "dyslipaemia; 1st Day", "result": 8.1},
      {"measurement": "Kunkel phenol test (K2)", "setting": "dyslipaemia; 1st Day", "result": 13.2},
      {"measurement": "esterification ratio (E/T)", "setting": "dyslipaemia; 1st Day", "result": 0.51},
      {"measurement": "esterified cholesterol (E)", "setting": "dyslipaemia; 1st Day", "result": 0.27},
      {"measurement": "free cholesterol (L)", "setting": "dyslipaemia; 1st Day", "result": 0.25},
      {"measurement": "serum lipids (LS)", "setting": "dyslipaemia; 1st Day", "result": 1.98},
      {"measurement": "total cholesterol (T)", "setting": "dyslipaemia; 1st Day", "result": 0.52},
      {"measurement": "Burstein test with dextrane (B)", "setting": "dyslipaemia; 30th Day", "result": 21.2},
      {"measurement": "Kunkel phenol test (K1)", "setting": "dyslipaemia; 30th Day", "result": 18.5},
      {"measurement": "Kunkel phenol test (K2)", "setting": "dyslipaemia; 30th Day", "result": 25.2},
      {"measurement": "esterification ratio (E/T)", "setting": "dyslipaemia; 30th Day", "result": 0.63},
      {"measurement": "esterified cholesterol (E)", "setting": "dyslipaemia; 30th Day", "result": 0.96},
      {"measurement": "free cholesterol (L)", "setting": "dyslipaemia; 30th Day", "result": 0.55},
      {"measurement": "serum lipids (LS)", "setting": "dyslipaemia; 30th Day", "result": 2.88},
      {"measurement": "total cholesterol (T)", "setting": "dyslipaemia; 30th Day", "result": 1.51},
      {"measurement": "Burstein test with dextrane (B)", "setting": "dyslipaemia; 75th Day", "result": 35.6},
      {"measurement": "Kunkel phenol test (K1)", "setting": "dyslipaemia; 75th Day", "result": 32.9},
      {"measurement": "Kunkel phenol test (K2)", "setting": "dyslipaemia; 75th Day", "result": 50.0},
      {"measurement": "esterification ratio (E/T)", "setting": "dyslipaemia; 75th Day", "result": 0.62},
      {"measurement": "esterified cholesterol (E)", "setting": "dyslipaemia; 75th Day", "result": 1.83},
      {"measurement": "free cholesterol (L)", "setting": "dyslipaemia; 75th Day", "result": 1.12},
      {"measurement": "serum lipids (LS)", "setting": "dyslipaemia; 75th Day", "result": 3.97},
      {"measurement": "total cholesterol (T)", "setting": "dyslipaemia; 75th Day", "result": 2.95},
      {"measurement": "aortic atheromatous lesions", "setting": "livers and aortas; marked in intensity from 0 to 4", "result": 1.4},
      {"measurement": "fatty infiltrations of the liver", "setting": "livers and aortas; marked in size from 0 to 3", "result": 1.2},
      {"measurement": "average percentage of analgesia", "setting": "[3]", "result": 69, "unit": "%"}
    ]}
  ]
}
